Data on 43 molecules can be found in US7767665B2, “1,3-benzothiazinone derivatives and use thereof” (Takeda Pharmaceutical Company Limited, priority 2001, dated 2010).

In turn, `CCN(CC)C(=O)NCCc1cccc(-c2nc(=O)c3ccccc3s2)n1` [Example 230, N,N-Diethyl-N′-[2-[6-(4-oxo-4H-1,3-benzothiazin-2-yl)-2-pyridyl]ethyl]urea] registered a melting point of 174.9 to 175.6 °C.
Take `CN(C)C(=O)Nc1cccc(-c2nc(=O)c3ccccc3s2)n1` [Example 231, N,N-Dimethyl-N′-[6-(4-oxo-4H-1,3-benzothiazin-2-yl)-2-pyridyl]urea]: the melting point lay within 230.1 to 230.3 °C.
On to `Cc1cccc2c(=O)nc(-c3cccc(C(=O)OC(C)(C)C)n3)sc12` [Example 232, tert-Butyl 6-(8-methyl-4-oxo-4H-1,3-benzothiazin-2-yl)-2-pyridinecarboxylate], for which the melting point fell in the range of 204.3 to 204.7 °C.
On to `Cc1cccc2c(=O)nc(-c3cccc(C(=O)O)n3)sc12` [Example 233, 6-(8-Methyl-4-oxo-4H-1,3-benzothiazin-2-yl)-2-pyridinecarboxylic acid], for which the melting point lay within 260.5 to 260.8 °C.
`Cc1cccc2c(=O)nc(-c3cccc(C(=O)NCCCCCCNC(=O)OC(C)(C)C)n3)sc12` [Example 234, tert-Butyl 6-[[[6-(8-methyl-4-oxo-4H-1,3-benzothiazin-2-yl)-2-pyridyl]carbonyl]amino]hexylcarbamate] had a melting point of 170.7 to 171.5 °C.
The molecule `O=C1c2ccccc2C(=O)N1Cc1cccc(-c2nc(=O)c3ccccc3s2)n1` [Example 236, 2-[[6-(4-Oxo-4H-1,3-benzothiazin-2-yl)-2-pyridyl]methyl]-1H-isoindole-1,3(2H)-dione] registered a melting point of 280.4 to 281.1 °C.
With `CCCCNC(=O)c1ccc2c(=O)nc(-c3ccccn3)sc2c1` [Example 237, N-Butyl-4-oxo-2-(2-pyridyl)-4H-1,3-benzothiazine-7-carboxamide], the melting point lay within 193.5 to 194.2 °C.
Consider `O=C(c1ccc2c(=O)nc(-c3ccccn3)sc2c1)N1CCCC1` [Example 238, 2-(2-Pyridyl)-7-(1-pyrrolidinylcarbonyl)-4H-1,3-benzothiazine-4-one], for which the melting point is 173.6 to 174.2 °C.
`O=C(NC1CC1)c1ccc2c(=O)nc(-c3ccccn3)sc2c1` [Example 239, N-Cyclopropyl-4-oxo-2-(2-pyridyl)-4H-1,3-benzothiazine-7-carboxamide]: the melting point fell in the range of 272.1 to 274.1 °C.
The molecule `O=C(c1ccc2c(=O)nc(-c3ccccn3)sc2c1)N1CCOCC1` [Example 240, 7-(4-Morpholinocarbonyl)-2-(2-pyridyl)-4H-1,3-benzothiazine-4-one] gave a melting point of 217.6 to 218.8 °C.
On to `O=c1nc(-c2ccccn2)sc2cc(Br)ccc12` [Example 241, 7-Bromo-2-(2-pyridyl)-4H-1,3-benzothiazine-4-one], for which the melting point fell in the range of 230.7 to 232.2 °C.
`N#Cc1cccc(-c2nc(=O)c3ccccc3s2)n1` [Example 242, 6-(4-Oxo-4H-1,3-benzothiazin-2-yl)-s-pyridinecarbonitrile] gave a melting point of 263.7 to 264.2 °C.
In the case of `O=c1nc(-c2cccc(CP(=O)(O)O)n2)sc2ccccc12` [Example 244] it was 254 °C (dec.).
`O=c1nc(-c2cccc(CCP(=O)(O)O)n2)sc2ccccc12` [Example 246] came in with a melting point of 235.3 to 237.2 °C.
Take `CCSCc1cccc(-c2nc(=O)c3ccccc3s2)n1` [Example 249, 2-[6-[(Ethylthio)methyl]-2-pyridyl]-4H-1,3-benzothiazine-4-one]: the melting point lay within 142 to 143.5 °C.
To `CC[S+]([O-])Cc1cccc(-c2nc(=O)c3ccccc3s2)n1` (stereo not shown) [Example 250, 2-[6-[(Ethylsulfinyl)methyl]-2-pyridyl]-4H-1,3-benzothiazine-4-one] belongs 188.5 to 190 °C; to `CCS(=O)(=O)Cc1cccc(-c2nc(=O)c3ccccc3s2)n1` [Example 251, 2-[6-[(Ethylsulfonyl)methyl]-2-pyridyl]-4H-1,3-benzothiazine-4-one], 188.5 to 190 °C.
`CCC[S+]([O-])Cc1cccc(-c2nc(=O)c3ccccc3s2)n1` (stereo not shown) [Example 253] returned a melting point of 171 to 173 °C.
Take `CCCS(=O)(=O)Cc1cccc(-c2nc(=O)c3ccccc3s2)n1` [Example 254, 2-[6-[(n-Propylsulfonyl)methyl]-2-pyridyl]-4H-1,3-benzothiazine-4-one]: the melting point was in the range of 177 to 179 °C.
In the case of `O=c1nc(-c2cccc(CSCc3ccccc3)n2)sc2ccccc12` [Example 255, 2-[6-[(Benzylthio)methyl]-2-pyridyl]-4H-1,3-benzothiazine-4-one] it was 126 to 128 °C; in that of `O=c1nc(-c2cccc(C[S+]([O-])Cc3ccccc3)n2)sc2ccccc12` (stereo not shown) [Example 256, 2-[6-[(Benzylsulfinyl)methyl]-2-pyridyl]-4H-1,3-benzothiazine-4-one], 187 to 189 °C; in that of `O=c1nc(-c2cccc(CS(=O)(=O)Cc3ccccc3)n2)sc2ccccc12` [Example 257, 2-[6-[(Benzylsulfonyl)methyl]-2-pyridyl]-4H-1,3-benzothiazine-4-one], 246 to 248 °C.
As for `COC(=O)CSCc1cccc(-c2nc(=O)c3ccccc3s2)n1` [Example 258, Methyl ({[6-(4-oxo-4H-1,3-benzothiazin-2-yl)-2-pyridyl]methyl}thio)acetate], the melting point lay within 108 to 110 °C.
`COC(=O)C[S+]([O-])Cc1cccc(-c2nc(=O)c3ccccc3s2)n1` (stereo not shown) [Example 259, Methyl ({[6-(4-oxo-4H-1,3-benzothiazin-2-yl)-2-pyridyl]methyl}sulfinyl)acetate] registered a melting point of 149.5 to 151 °C.
In the case of `COC(=O)CS(=O)(=O)Cc1cccc(-c2nc(=O)c3ccccc3s2)n1` [Example 260, Methyl ({[6-(4-oxo-4H-1,3-benzothiazin-2-yl)-2-pyridyl]methyl}sulfonyl)acetate], the melting point was 205 to 207 °C.
To `C[S+]([O-])c1ccc(-c2nc(=O)c3ccccc3s2)cn1` (stereo not shown) [Example 261, 2-[6-(Methylsulfinyl)-3-pyridyl]-4H-1,3-benzothiazine-4-one] belongs 195 to 196.5 °C.
With `CS(=O)(=O)c1ccc(-c2nc(=O)c3ccccc3s2)cn1` [Example 262, 2-[6-(Methylsulfonyl)-3-pyridyl]-4H-1,3-benzothiazine-4-one], the melting point was in the range of 205 to 207 °C.
In turn, `C[S+]([O-])c1cc(-c2nc(=O)c3ccccc3s2)ccn1` (stereo not shown) [Example 263, 2-[2-(Methylsulfinyl)-4-pyridyl]-4H-1,3-benzothiazine-4-one] gave a melting point of 172.5 to 174 °C.
For the molecule `CS(=O)(=O)c1cc(-c2nc(=O)c3ccccc3s2)ccn1` [Example 264, 2-[2-(Methylsulfonyl)-4-pyridyl]-4H-1,3-benzothiazine-4-one], the melting point lay in the range of 189.5 to 191.5 °C.
Molecule `O=c1nc(-c2cccc(CN3CCN(c4ccc(F)cc4)CC3)n2)sc2ccccc12` [Example 265, 2-(6-{[4-(4-Fluorophenyl)-1-piperazinyl]methyl}-2-pyridyl)-4H-1,3-benzothiazine-4-one] displayed a melting point of 156 to 157 °C.
`O=c1nc(-c2cccc(CN3CCCCC3)n2)sc2ccccc12` [Example 266, 2-[6-(1-Piperidinomethyl)-2-pyridyl]-4H-1,3-benzothiazine-4-one] yielded a melting point of 162 to 163 °C.
The molecule `O=c1nc(-c2cccc(CN3CCC(c4ccccc4)CC3)n2)sc2ccccc12` [Example 267, 2-{6-[(4-Phenyl-1-piperidyl)methyl]-2-pyridyl}-4H-1,3-benzo thiazine-4-one] displayed a melting point of 207 to 208 °C.
Consider `O=c1nc(-c2cccc(CN3CCC(Cc4ccccc4)CC3)n2)sc2ccccc12` [Example 268, 2-{6-[(4-Benzyl-1-piperidyl)methyl]-2-pyridyl}-4H-1,3-benzo thiazine-4-one], for which the melting point lay within 151 to 153 °C.
Take `O=c1nc(-c2cccc(Sc3ncccn3)n2)sc2ccccc12` [Example 270, 2-[6-(2-Pyrimidinylthio)-2-pyridyl]-4H-1,3-benzothiazine-4-one]: the melting point lay within 245.2 to 245.8 °C.
In the case of `Cn1ccnc1Sc1cccc(-c2nc(=O)c3ccccc3s2)n1` [Example 271, 2-{6-[(1-Methyl-1H-imidazol-2-yl)thio]-2-pyridyl}-4H-1,3-benzothiazine-4-one] it was 171.9 to 172.3 °C; in that of `O=c1nc(-c2cccc(CSc3ccccn3)n2)sc2ccccc12` [Example 272, 2-{6-[(2-Pyridylthio)methyl]-2-pyridyl}-4H-1,3-benzothiazine-4-one], 151.3 to 151.9 °C; in that of `O=c1nc(-c2cccc(CSc3ccncc3)n2)sc2ccccc12` [Example 273, 2-{6-[(4-pyridylthio)methyl]-2-pyridyl}-4H-1,3-benzothiazine-4-one], 181.9 to 182.5 °C.
As for `O=c1nc(-c2cccc(Sc3ccncc3)n2)sc2ccccc12` [Example 274, 2-[6-(4-Pyridylthio)-2-pyridyl]-4H-1,3-benzothiazine-4-one], the melting point was in the range of 245.2 to 245.8 °C.
`CC(C)(C)OC(=O)CSc1cccc(-c2nc(=O)c3ccccc3s2)n1` [Example 275, tert-Butyl {[6-(4-oxo-4H-1,3-benzothiazin-2-yl)-2-pyridyl]thio}acetate] returned a melting point of 169.5 to 170 °C.
Turning to `O=C(O)CSc1cccc(-c2nc(=O)c3ccccc3s2)n1` [Example 276, [6-(4-Oxo-4H-1,3-benzothiazin-2-yl)-2-pyridyl]thioacetic acid], the melting point was in the range of 258 to 260 °C.
`CCOC(=O)CSc1cccc(-c2nc(=O)c3ccccc3s2)n1` [Example 277, Ethyl {[6-(4-oxo-4H-1,3-benzothiazin-2-yl)-2-pyridyl]thio}acetate]: the melting point was in the range of 124.5 to 125 °C.
Regarding `CC(C)(C)OC(=O)C[S+]([O-])c1cccc(-c2nc(=O)c3ccccc3s2)n1` (stereo not shown) [Example 278, tert-Butyl {[6-(4-oxo-4H-1,3-benzothiazin-2-yl)-2-pyridyl]sulfinyl}acetate], the melting point was in the range of 158.8 to 159.1 °C.
In the case of `O=C(O)C[S+]([O-])c1cccc(-c2nc(=O)c3ccccc3s2)n1` (stereo not shown) [Example 279, [6-(4-Oxo-4H-1,3-benzothiazin-2-yl)-2-pyridyl]sulfinylacetic acid], the melting point lay in the range of 186.5 to 188 °C.
